Source: paper PMC3248459, “A Photocytes-Associated Fatty Acid-Binding Protein from the Light Organ of Adult Taiwanese Firefly, Luciola cerata” (PLoS ONE, 2011)
Where two headings read alike, the source gives them in different places.

How the values were obtained:
Format in all cases: binding
recombinant lcFABP [1] = biological target: T1, recombinant lcFABP (Luciola cerata, UniProt G1FKW0); test: time-dependent ANS displacement assay with D-luciferin and palmitic acid (Fig. S2)
Method: In this study, we also investigated whether lcFABP could bind firefly luciferin using ANS displacement assay (Fig. S2).
Fluorescence change was recorded after successively adding lcFABP (until final concentration become 2 µM at 100 s), D-luciferin (Luc; 1 µM at 200 s and 2 µM at 300 s) or palmitic acid (PA; 1 µM at 200 s and 2 µM at 300 s), and the competitive palmitic acid (2 µM at 400 s) or D-luciferin (2 µM at 400 s) to into the ANS (40 µM) containing buffer using time-dependent model. The results have been subtracted of D-luciferin's intrinsic-fluorescence. All experiments are monitored under a detected wavelength of Ex: 370 nm and Em: 450 nm to reduce the interference of D-luciferin intrinsic-fluorescence to the assay. (TIF) Click here for additional data file.

recombinant lcFABP [2] = biological target: T1, recombinant lcFABP; test: fluorescence (ANS) displacement assay with fatty acids; conditions: for binding strength of lcFABP to ligand (in words): ANS displacement assay, recombinant lcFABP
Method: (§1) The binding property of lcFABP to fatty acids was analyzed by a fluorescence displacement assay using 1-anilinonaphthalene-8-sulfonic acid (ANS) as fluorescent probe. This assay utilizes ANS's property of emitting intense fluorescence when bind to the hydrophobic region of protein non-covalently. The displacement of ANS from ligand binding site of FABPs by fatty acid or other hydrophobic ligand will result in the reduction of fluorescence. In this way, the apparent inhibition constants (Ki) of fatty acid or hydrophobic ligand to FABPs can be measured, [25]-[27].
Recombinant lcFABP was overexpressed in E. coli cells, and purified by a two-step chromatography for ligand binding assay. […] After that, the binding of fatty acid to lcFABP was examined by a competitive displacement titration. […] Conversely, the lcFABP binds moderately to saturated dodecanoic acid (C12:0), monounsaturated oleic acid (C18:1) and polyunsaturated arachidonic acid (C20:4), and poorly to the saturated capric acid (C10:0). These binding studies confirmed that the recombinant lcFABP is a functional protein for fatty acids binding as other reported FABPs, [16].
Fatty acid binding of recombinant lcFABP was assessed by a competitive displacement assay using fluorescence probe ANS as described previously, [27]. F7000 fluorescence spectrophotometer (Hitachi, Tokyo, Japan) was used for measuring the ANS fluorescence signal at the emission 470 nm following excitation at 375 nm. All measurements were carried out in an assay buffer contained 50 mM sodium phosphate, pH 7.5, 140 mM KCl, 5 mM β-ME at 25°C under a dim light. ANS and various fatty acids were prepared freshly in absolute ethanol before used. To evaluate ANS-lcFABP interaction, 2 µM lcFABP in a final volume of 2 ml assay buffer was titrated with 1∼2 ul of ANS from a initial concentration of 0 µM to 80 µM. The apparent dissociation constant (Kd) of ANS-lcFABP complex was measured by nonlinear regression analysis of the binding data as described previously. To evaluated the binding of fatty acids to lcFABP, 2 µM lcFABP was pre-equilibrated with 40 µM ANS for 2 min in assay buffer, and then titrated with increasing concentrations of fatty acids until the reduction of fluorescence became saturate. The apparent inhibition constant (Ki) of each fatty acid to ANS-lcFABP complex was calculated from the displacement data as described previously. All binding experiments were repeated at least three times.

recombinant lcFABP [3] = biological target: T1, recombinant lcFABP; test: ANS fluorescence titration of recombinant lcFABP
Method: as §1
Recombinant lcFABP was overexpressed in E. coli cells, and purified by a two-step chromatography for ligand binding assay. […]
Fatty acid binding of recombinant lcFABP was assessed by a competitive displacement assay using fluorescence probe ANS as described previously, [27]. F7000 fluorescence spectrophotometer (Hitachi, Tokyo, Japan) was used for measuring the ANS fluorescence signal at the emission 470 nm following excitation at 375 nm. […] The apparent dissociation constant (Kd) of ANS-lcFABP complex was measured by nonlinear regression analysis of the binding data as described previously. To evaluated the binding of fatty acids to lcFABP, 2 µM lcFABP was pre-equilibrated with 40 µM ANS for 2 min in assay buffer, and then titrated with increasing concentrations of fatty acids until the reduction of fluorescence became saturate. […]

[4] = apparent inhibition constant, 2 µM lcFABP pre-equilibrated with 40 µM ANS, pH 7.5, 25°C, at least three repeats, read-out: Ki

T1 sequence (G1FKW0 entry or part of it): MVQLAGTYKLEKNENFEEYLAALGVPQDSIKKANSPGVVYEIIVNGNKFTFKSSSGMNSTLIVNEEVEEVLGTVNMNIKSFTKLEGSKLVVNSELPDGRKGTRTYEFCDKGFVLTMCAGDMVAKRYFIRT

SMILES	binding strength of lcFABP to ligand (in words) (recombinant lcFABP [2])	Ki (recombinant lcFABP [2])	other results
O=C(O)[C@H]1CSC(c2nc3ccc(O)cc3s2)=N1 [luciferin, D-luciferin]	–	–	interaction of lcFABP with ligand (in words) (recombinant lcFABP [1]): weakly; reduction of fluorescence (recombinant lcFABP [1]): about 12%
CCCCCCCCCCCCCCCCCC(=O)O [Steric acid]	strongly	–	Ki (recombinant lcFABP [2]; [4]): 250 ± 10 nM
CCCCCCCCCCCCCC(=O)O [Myristic acid]	strongly	640 ± 140 nM	–
CCCCCCCCCCCC(=O)O [Dodecanoic acid]	moderately	1670 ± 150 nM	–
O=S(=O)(O)c1cccc2cccc(Nc3ccccc3)c12 [ANS, 1-anilinonaphthalene-8-sulfonic acid]	–	–	Kd (recombinant lcFABP [3]): 11200 ± 1500 nM
CCCCCCCC/C=C\CCCCCCCC(=O)O [Oleic acid]	moderately	1000 ± 170 nM	–
CCCCC/C=C\C/C=C\C/C=C\C/C=C\CCCC(=O)O [Arachidonic acid]	moderately	1590 ± 160 nM	–
CCCCCCCCCCCCCCCC(=O)O [Palmitic acid]	strongly	550 ± 120 nM	reduction of fluorescence (recombinant lcFABP [1]; 2 µM lcFABP, 40 µM ANS, ligand added at 1-2 µM, luciferin intrinsic fluorescence subtracted, Ex 370 nm, Em 450 nm): ≤ 40%
CCCCCCCCCC(=O)O [Capric acid]	poorly	–	Ki (recombinant lcFABP [2]; [4]): 118000 ± 6240 nM
